Data from patent US20260256751A1, “COMBINATION OF BETA-2-ADRENERGIC RECEPTOR AGONISTS AND GLP-1 RECEPTOR AGONISTS FOR USE IN TREATING HYPERGLYCAEMIA” (ATROGI AB, priority 2023, published 2026).

Columns and labels:
[1] = test system: differentiated L6-myotubes; assay: Glucose uptake screen (Biological example 1 of WO 2019/053427); format: cell-based; details: compound at 10 μM, activity relative to isoproterenol at 10 μM, read-out: Biological example 1 of WO 2019/053427 (GU)
In short: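 Rat L6 myoblasts were differentiated into myotubes over 7 days in 2% FBS, then serum-starved overnight. Cells were stimulated with 1×10^−5 M compound plus β2 antagonist ICI-118551 for 1 h 40 min and re-dosed for 20 min in glucose-free medium. Uptake of 50 nM ^3H-2-deoxyglucose over 10 min was counted after NaOH lysis.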

[2] = test system: differentiated L6-myotubes; assay: cAMP production relative to isoprenaline (Biological example 2 of WO 2019/053427); format: cell-based; details: 0.25 h, compound at 10 μM, activity relative to isoproterenol at 10 μM
In short: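 Differentiated L6 myotubes stimulated 15 min with test compound or isoprenaline, each at final 1×10^−5 M, in HBSS with 1% BSA, 5 mM HEPES, 1 mM IBMX, pH 7.4. cAMP production by the compound expressed relative to that induced by the same concentration of isoprenaline.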

Structure (SMILES)	Emax at 10 µM [1]	Emax at 10 µM [2]
O[C@@H](CNCCC[C@H]1CC[C@H](OCc2ccccc2)CC1)c1cncc(F)c1 [Compound 276, (R)-1-(5-fluoro-3-pyridyl)-2-{3-[(1r,4S)-4-(benzyloxy)cyclohexyl]pro-pylamino}-1-ethanol]	25 to 50%	< 25%
CC1(C)C[C@@H]([C@@H](O)c2cncc(F)c2)N1 [Compound 215, (S)-[(S)-4,4-dimethyl-2-azetidinyl](5-fluoro-3-pyridyl)methanol]	25 to 50%	< 25%
CO[C@H]1CC[C@@H](CCC(C)(C)NC[C@H](O)c2cncc(F)c2)CC1 [Compound 266]	> 75%	< 25%
CO[C@H]1CC[C@H](C[C@@H]2CC[C@H]([C@H](O)c3cncc(F)c3)N2)CC1 [Compound 333, (R)-[(2R,5S)-5-{[(1r,4S)-4-methoxycyclohexyl]methyl}-2-pyrrolidinyl](5-fluoro-3-pyridyl)methanol]	25 to 50%	< 25%
CC1(C)C[C@H]([C@@H](O)c2ccccc2F)N1 [Compound 203, (S)-[(R)-4,4-dimethyl-2-azetidinyl](o-fluorophenyl)methanol]	25 to 50%	< 25%
CCC(C)NCC(O)c1ccc(O)cc1 (stereo not shown) [Compound 5, 2-(sec-butylamino)-1-(p-hydroxyphenyl)-1-ethanol]	50 to 75%	< 25%
CS(=O)(=O)Nc1ccc(CC23CCC([C@H](O)c4cccc(F)c4)(CC2)N3)cc1 [Compound 475, (R)-(m-fluorophenyl)(4-{[p-(mesylamino)phenyl]methyl}-7-azabicyclo[2.2.1]hept-1-yl)methanol]	50 to 75%	< 25%
O[C@@H](c1cccc(F)c1)C12CCC(CCCc3ccccc3)(CC1)N2 [Compound 535, (S)-(m-fluorophenyl){4-(3-phenylpropyl)-7-azabicyclo[2.2.1]hept-1-yl}methanol]	25 to 50%	< 25%
CCCCNCC(O)c1ccc(=O)[nH]c1 (stereo not shown) [Compound 63, 5-[2-(butylamino)-1-hydroxyethyl]-2(1H)-pyridinone]	25 to 50%	< 25%
CS(=O)(=O)N(Cc1ccccc1)[C@H]1CC[C@@H](C[C@@H]2CC[C@H]([C@H](O)c3cccc(F)c3)N2)CC1 [Compound 508, (R)-[(2R,5S)-5-({(1s,4R)-4-[(benzyl)-N-mesylamino]cyclohexyl}methyl)-2-pyrrolidinyl](m-fluorophenyl)methanol]	< 25%	< 25%
CC(C)(CC[C@H]1CC[C@H](C(=O)O)CC1)NC[C@H](O)c1cccc(F)c1 [Compound 348, (1R,4r)-4-{3-[(R)-2-(m-fluorophenyl)-2-hydroxyethylamino]-3-methylbutyl}cyclohexanecarboxylic acid]	< 25%	< 25%
CS(=O)(=O)N[C@H]1CC[C@@H](CNC[C@H](O)c2cncc(F)c2)CC1 [Compound 314, (R)-1-(5-fluoro-3-pyridyl)-2-({[(1s,4S)-4-(mesylamino)cyclohexyl]methyl}amino)-1-ethanol]	50 to 75%	< 25%
CC1(C)C[C@@H]([C@H](O)c2cncc(F)c2)N1 [Compound 216, (R)-[(S)-4,4-dimethyl-2-azetidinyl](5-fluoro-3-pyridyl)methanol]	25 to 50%	< 25%
CC12CCC([C@H](O)c3cccc(F)c3)(CC1)N2 [Compound 179, (R)-(m-fluoropehnyl)(4-methyl-7-azabicyclo[2.2.1]hept-1-yl)methanol]	50 to 75%	< 25%
O[C@@H](c1cccc(F)c1)C12CCC(COCc3ccc(F)cc3)(CC1)N2 [Compound 438, (S)-(m-fluorophenyl)(4-{[(p-fluorophenyl)methoxy]methyl}-7-azabicyclo[2.2.1]hept-1-yl)methanol]	< 25%	< 25%
COc1ccc(C[C@H]2CC[C@H]([C@H](O)c3cncc(F)c3)N2)cc1 [Compound 379, (R)-{(2R,5R)-5-[(p-methoxyphenyl)methyl]-2-pyrrolidinyl}(5-fluoro-3-pyridyl)methanol]	> 75%	< 25%
O[C@@H](CNC[C@H]1CC[C@H](OCc2ccccc2)CC1)c1cccc(F)c1 [Compound 271, (R)-1-(m-fluorophenyl)-2-({[(1r,4R)-4-(benzyloxy)cyclohexyl]methyl}amino)-1-ethanol]	25 to 50%	< 25%
CO[C@H]1CC[C@H](CC(C)(C)NC[C@H](O)c2cccc(F)c2)CC1 [Compound 249, (R)-2-{1,1-dimethyl-2-[(1r,4R)-4-methoxycyclohexyl]ethyl-amino}-1-(m-fluorophenyl)-1-ethanol]	> 75%	< 25%

Structure (SMILES)	Emax at 10 µM [1]	Emax at 10 µM [2]
CC(C)(C[C@H]1CC[C@@H](NC(=O)C(F)(F)F)CC1)NC[C@H](O)c1cccc(F)c1 [Compound 454, N-[(1S,4s)-4-{2-[(R)-2-(m-fluorophenyl)-2-hydroxyethylamino]-2-methylpropyl}cyclohexyl]trifluoroacetamide]	> 75%	< 25%
O[C@H](c1cccc(F)c1)C12CCC(COCc3ccc(OC(F)(F)F)cc3)(CC1)N2 [Compound 488, (R)-(m-fluorophenyl)(4-{[(p-trifluoromethoxyphenyl)methoxy]methyl}-7-azabicyclo[2.2.1]hept-1-yl)methanol]	< 25%	< 25%
CCS(=O)(=O)N[C@H]1CC[C@H](CC(C)(C)NC[C@H](O)c2cncc(F)c2)CC1 [Compound 525, (R)-2-{1,1-dimethyl-2-[(1r,4R)-4-(ethylsulfonylamino)cyclohexyl]ethylamino}-1-(5-fluoro-3-pyridyl)-1-ethanol]	50 to 75%	< 25%
CC(=O)N[C@H]1CC[C@@H](C[C@@H]2CC[C@H]([C@H](O)c3cccc(F)c3)N2)CC1 [Compound 484, N-[(1R,4s)-4-({(2S,5R)-5-[(R)-(m-fluorophenyl)hydroxymethyl]-2-pyrrolidinyl}methyl)cyclohexyl]acetamide]	50 to 75%	< 25%
CCC[C@@H]1CCCC[C@H]([C@H](O)c2cncc(F)c2)N1 [Compound 219, (R)-[(2R,7R)-7-propyl-2-azepanyl](5-fluoro-3-pyridyl)methanol]	< 25%	< 25%
CCCCNC[C@H](O)c1cnc(NC(=O)C(C)C)nc1 [Compound 88, N-{5-[(R)-2-(butylamino)-1-hydroxyethyl]-2-pyrimidinyl}2-methylpropionamide]	50 to 75%	< 25%
CO[C@H]1CC[C@H](CCC23CCC([C@H](O)c4cccc(F)c4)(CC2)N3)CC1 [Compound 411, (R)-(m-fluorophenyl)(4-{2-[(1r,4S)-4-methoxycyclohexyl]ethyl}-7-azabicyclo[2.2.1]hept-1-yl)methanol]	> 75%	50 to 75%
COC(=O)[C@H]1CC[C@@H](C(C)(C)NC[C@H](O)c2cccc(F)c2)CC1 [Compound 328, (1S,4s)-8-[(R)-2-(m-fluorophenyl)-2-hydroxyethylamino]-7-methoxy-p-menthan-7-one]	> 75%	< 25%
CO[C@H]1CC[C@H](C(C)(C)NC[C@H](O)c2cccc(F)c2)CC1 [Compound 239, (R)-1-(m-fluorophenyl)-2-{1-methyl-1-[(1r,4R)-4-methoxycyclohexyl]ethyl-amino}-1-ethanol]	> 75%	< 25%
CN(C)S(=O)(=O)[C@H]1CC[C@@H](CC(C)(C)NC[C@H](O)c2cccc(F)c2)CC1 [Compound 470, (R)-2-{1,1-dimethyl-2-[(1s,4S)-4-(dimethylaminosulfonyl)cyclohexyl]ethylamino}-1-(m-fluorophenyl)-1-ethanol]	> 75%	25 to 50%
CC12CCC([C@H](O)c3cccc(Cl)c3)(CC1)N2 [Compound 197, (R)-(m-chlorophenyl)(4-methyl-7-azabicyclo[2.2.1]hept-1-yl)methanol]	> 75%	< 25%
CC1(C)C[C@@H]([C@H](O)c2ccccc2F)N1 [Compound 202, (R)-[(S)-4,4-dimethyl-2-azetidinyl](o-fluorophenyl)methanol]	< 25%	< 25%
CCC[C@@H]1CC[C@H]([C@H](O)c2cccc(Cl)c2)N1 [Compound 141, (R)-[(2R,5R)-5-propyl-2-pyrrolidinyl](m-chlorophenyl)methanol]	50 to 75%	< 25%
CCC[C@@H]1CC[C@@H]([C@@H](O)c2cccc(F)c2)N1 [Compound 133, (S)-[(2S,5R)-5-propyl-2-pyrrolidinyl](m-fluorophenyl)methanol]	50 to 75%	< 25%
O[C@@H](c1cccc(F)c1)[C@H]1CCC2(CCCC2)N1 [Compound 169, (S)-{(R)-1-aza-2-spiro[4.4]nonyl}(m-fluorophenyl)methanol]	< 25%	< 25%
CC(C)(NC[C@H](O)c1cncc(F)c1)[C@H]1CC[C@H](C(=O)O)CC1 [Compound 390, (1R,4r)-8-[(R)-2-(5-fluoro-3-pyridyl)-2-hydroxyethylamino]-7-hydroxy-p-menthan-7-one]	50 to 75%	< 25%
CC(C)(C)NC[C@H](O)c1cncc(Cl)c1 [Compound 138, (R)-2-(tert-butylamino)-1-(5-chloro-3-pyridyl)-1-ethanol]	> 75%	> 75%
